In patent US20240217973A1, “IMIDAZOPYRIDINE COMPOUNDS AND USE THEREOF” (MEDSHINE DISCOVERY INC., priority 2021, published 2024):

Assays:
[1] = Pharmacokinetic evaluation of compounds in rats; assay type: in vivo; conditions: rat, plasma, SD rats
Protocol: Experimental purpose: To test the in vivo pharmacokinetic data of compounds in SD rats.
(§1) The compound was mixed with the solvent 5% DMSO/5% Solutol/90% H2O, vortexed and sonicated to prepare a 0.5 mg/mL clear solution. The rats were administered the candidate compound solution intravenously. Whole blood was collected for a certain period of time, and plasma was prepared. The drug concentration was analyzed by LC-MS/MS method, and pharmacokinetic parameters were calculated.
as §1, with “2” for “0.5”, “administered” for “administered the”, “solutions orally.” for “solution intravenously.”

[2] = Hepatocyte metabolic stability experiment (HMS), D; assay type: in vitro ADME; conditions: dog, D hepatocytes, read-out: HMS CLint(liver)
Protocol: (§2) Experimental operations: 198 μL of hepatocyte suspension (0.51×10^6 cells/mL) was added to the preheated incubation plate, and 198 μL of culture medium without hepatocytes was added to T0-MC and T120-MC incubation plates for the culture medium control group, and all incubation plates were pre-incubated for 10 minutes in a 37° C. incubator. Then 2 μL of the working solution of the test and control compounds were added and mixed well, and the incubation plate was immediately put into the plate shaker in the incubator, the rotation speed was adjusted to about 650 rpm, and the timer and the reaction were started. 2 duplicate samples for each compound were prepared at each time point. Incubation conditions: 37° C., saturated humidity, and containing 5% CO2. In the test system, the final concentration of the test compound was 1 μM, the final concentration of the control compound was 3 μM, the final concentration of hepatocytes was 0.5×10^6 cells/mL, and the final concentration of the total organic solvent was 0.96%, of which the final concentration of DMSO was 0.1%. […] All samples were mixed and analyzed by LC-MS/MS method. […]

[3] = Hepatocyte metabolic stability experiment (HMS), C; assay type: in vitro ADME; conditions: cynomolgus monkey, C hepatocytes, read-out: HMS CLint(liver)
Protocol: as §2

plasma proteins = assay: Plasma protein binding experiment (PPB), C; assay type: in vitro ADME, cynomolgus monkey; conditions: 2 μM, 4 hours dialysis
Protocol: Experimental operation: 995 μL of blank plasma of each genus was taken, 5 μL of working solution of test compound (400 μM) or working solution of warfarin (400 μM) was added, so that the final concentrations of the test compound and warfarin in the plasma sample was 2 μM. The sample was mixed thoroughly. The final concentration of the organic phase DMSO was 0.5%; 50 μL of plasma samples of the test compound and warfarin were pipetted into the sample receiving plate (three parallels), and the corresponding volume of the corresponding blank plasma or buffer was immediately added so that the final volume of each sample well was 100 μL, with a volume ratio of 1:1 for plasma: dialysis buffer, and then 500 μL of stop solution was added to these samples, and these samples would be used as a T0 sample for the recovery and stability determination. […] All samples were analyzed by LC/MS/MS after protein precipitation, and the protein binding rate and recovery rate were calculated by the formula: % Unbound=100*F/T, % Bound=100−% Unbound, % Recovery 100*(F+T) T0 (where F was the peak area ratio of the compound in the dialysate after 4 hours of dialysis; T was the peak area ratio of the compound in the plasma after 4 hours of dialysis, and T0 was the peak area ratio of the compound in the plasma sample at zero time).

[4] = IV, 1.0 mg/kg (002), 0.85 mg/kg (003B)
[5] = PO, 9.2 mg/kg (002), 8.4 mg/kg (003B)

Compound `Nc1nccc2c1n(-c1ccc(Oc3ccccc3)cc1)c(=O)n2[C@@H]1CCCN(C(=O)/C=C/CF)C1` [Compound 002] has an AUC(0-inf) [1, 4] of 1.32 µM·h, a C0 [1, 4] of 3520 nM and a Vd [1, 4] of 0.7 L/kg. For the same compound, the clearance [1, 4] was 26 mL/min/kg, the half-life [1, 4] was 24 min and the AUC(0-inf) [1, 5] was 2.58 µM·h. For the same compound, the Cmax [1, 5] was 1800 nM, the Tmax [1, 5] was 22.8 min and the bioavailability [1, 5] was 18.1%. The half-life [1, 5] was 107 min, the CLint scaled at 1 μM [2] was 187 mL/min/kg and the CLint scaled at 1 μM [3] was 203 mL/min/kg. For the same compound, the “Unbound PPB” value (plasma proteins) was 4.1%.
